This passage reports IC50 results from BindingDB's records for doi:10.7270/Q2930S2V (Taibah University, 2017).

For orientation: IC50 means the concentration needed to halve the response being measured. Read a low IC50 as inhibition by little substance.

Each structure is given as a SMILES string.

Chain of DNA-dependent protein kinase catalytic subunit (P78527 whole entry): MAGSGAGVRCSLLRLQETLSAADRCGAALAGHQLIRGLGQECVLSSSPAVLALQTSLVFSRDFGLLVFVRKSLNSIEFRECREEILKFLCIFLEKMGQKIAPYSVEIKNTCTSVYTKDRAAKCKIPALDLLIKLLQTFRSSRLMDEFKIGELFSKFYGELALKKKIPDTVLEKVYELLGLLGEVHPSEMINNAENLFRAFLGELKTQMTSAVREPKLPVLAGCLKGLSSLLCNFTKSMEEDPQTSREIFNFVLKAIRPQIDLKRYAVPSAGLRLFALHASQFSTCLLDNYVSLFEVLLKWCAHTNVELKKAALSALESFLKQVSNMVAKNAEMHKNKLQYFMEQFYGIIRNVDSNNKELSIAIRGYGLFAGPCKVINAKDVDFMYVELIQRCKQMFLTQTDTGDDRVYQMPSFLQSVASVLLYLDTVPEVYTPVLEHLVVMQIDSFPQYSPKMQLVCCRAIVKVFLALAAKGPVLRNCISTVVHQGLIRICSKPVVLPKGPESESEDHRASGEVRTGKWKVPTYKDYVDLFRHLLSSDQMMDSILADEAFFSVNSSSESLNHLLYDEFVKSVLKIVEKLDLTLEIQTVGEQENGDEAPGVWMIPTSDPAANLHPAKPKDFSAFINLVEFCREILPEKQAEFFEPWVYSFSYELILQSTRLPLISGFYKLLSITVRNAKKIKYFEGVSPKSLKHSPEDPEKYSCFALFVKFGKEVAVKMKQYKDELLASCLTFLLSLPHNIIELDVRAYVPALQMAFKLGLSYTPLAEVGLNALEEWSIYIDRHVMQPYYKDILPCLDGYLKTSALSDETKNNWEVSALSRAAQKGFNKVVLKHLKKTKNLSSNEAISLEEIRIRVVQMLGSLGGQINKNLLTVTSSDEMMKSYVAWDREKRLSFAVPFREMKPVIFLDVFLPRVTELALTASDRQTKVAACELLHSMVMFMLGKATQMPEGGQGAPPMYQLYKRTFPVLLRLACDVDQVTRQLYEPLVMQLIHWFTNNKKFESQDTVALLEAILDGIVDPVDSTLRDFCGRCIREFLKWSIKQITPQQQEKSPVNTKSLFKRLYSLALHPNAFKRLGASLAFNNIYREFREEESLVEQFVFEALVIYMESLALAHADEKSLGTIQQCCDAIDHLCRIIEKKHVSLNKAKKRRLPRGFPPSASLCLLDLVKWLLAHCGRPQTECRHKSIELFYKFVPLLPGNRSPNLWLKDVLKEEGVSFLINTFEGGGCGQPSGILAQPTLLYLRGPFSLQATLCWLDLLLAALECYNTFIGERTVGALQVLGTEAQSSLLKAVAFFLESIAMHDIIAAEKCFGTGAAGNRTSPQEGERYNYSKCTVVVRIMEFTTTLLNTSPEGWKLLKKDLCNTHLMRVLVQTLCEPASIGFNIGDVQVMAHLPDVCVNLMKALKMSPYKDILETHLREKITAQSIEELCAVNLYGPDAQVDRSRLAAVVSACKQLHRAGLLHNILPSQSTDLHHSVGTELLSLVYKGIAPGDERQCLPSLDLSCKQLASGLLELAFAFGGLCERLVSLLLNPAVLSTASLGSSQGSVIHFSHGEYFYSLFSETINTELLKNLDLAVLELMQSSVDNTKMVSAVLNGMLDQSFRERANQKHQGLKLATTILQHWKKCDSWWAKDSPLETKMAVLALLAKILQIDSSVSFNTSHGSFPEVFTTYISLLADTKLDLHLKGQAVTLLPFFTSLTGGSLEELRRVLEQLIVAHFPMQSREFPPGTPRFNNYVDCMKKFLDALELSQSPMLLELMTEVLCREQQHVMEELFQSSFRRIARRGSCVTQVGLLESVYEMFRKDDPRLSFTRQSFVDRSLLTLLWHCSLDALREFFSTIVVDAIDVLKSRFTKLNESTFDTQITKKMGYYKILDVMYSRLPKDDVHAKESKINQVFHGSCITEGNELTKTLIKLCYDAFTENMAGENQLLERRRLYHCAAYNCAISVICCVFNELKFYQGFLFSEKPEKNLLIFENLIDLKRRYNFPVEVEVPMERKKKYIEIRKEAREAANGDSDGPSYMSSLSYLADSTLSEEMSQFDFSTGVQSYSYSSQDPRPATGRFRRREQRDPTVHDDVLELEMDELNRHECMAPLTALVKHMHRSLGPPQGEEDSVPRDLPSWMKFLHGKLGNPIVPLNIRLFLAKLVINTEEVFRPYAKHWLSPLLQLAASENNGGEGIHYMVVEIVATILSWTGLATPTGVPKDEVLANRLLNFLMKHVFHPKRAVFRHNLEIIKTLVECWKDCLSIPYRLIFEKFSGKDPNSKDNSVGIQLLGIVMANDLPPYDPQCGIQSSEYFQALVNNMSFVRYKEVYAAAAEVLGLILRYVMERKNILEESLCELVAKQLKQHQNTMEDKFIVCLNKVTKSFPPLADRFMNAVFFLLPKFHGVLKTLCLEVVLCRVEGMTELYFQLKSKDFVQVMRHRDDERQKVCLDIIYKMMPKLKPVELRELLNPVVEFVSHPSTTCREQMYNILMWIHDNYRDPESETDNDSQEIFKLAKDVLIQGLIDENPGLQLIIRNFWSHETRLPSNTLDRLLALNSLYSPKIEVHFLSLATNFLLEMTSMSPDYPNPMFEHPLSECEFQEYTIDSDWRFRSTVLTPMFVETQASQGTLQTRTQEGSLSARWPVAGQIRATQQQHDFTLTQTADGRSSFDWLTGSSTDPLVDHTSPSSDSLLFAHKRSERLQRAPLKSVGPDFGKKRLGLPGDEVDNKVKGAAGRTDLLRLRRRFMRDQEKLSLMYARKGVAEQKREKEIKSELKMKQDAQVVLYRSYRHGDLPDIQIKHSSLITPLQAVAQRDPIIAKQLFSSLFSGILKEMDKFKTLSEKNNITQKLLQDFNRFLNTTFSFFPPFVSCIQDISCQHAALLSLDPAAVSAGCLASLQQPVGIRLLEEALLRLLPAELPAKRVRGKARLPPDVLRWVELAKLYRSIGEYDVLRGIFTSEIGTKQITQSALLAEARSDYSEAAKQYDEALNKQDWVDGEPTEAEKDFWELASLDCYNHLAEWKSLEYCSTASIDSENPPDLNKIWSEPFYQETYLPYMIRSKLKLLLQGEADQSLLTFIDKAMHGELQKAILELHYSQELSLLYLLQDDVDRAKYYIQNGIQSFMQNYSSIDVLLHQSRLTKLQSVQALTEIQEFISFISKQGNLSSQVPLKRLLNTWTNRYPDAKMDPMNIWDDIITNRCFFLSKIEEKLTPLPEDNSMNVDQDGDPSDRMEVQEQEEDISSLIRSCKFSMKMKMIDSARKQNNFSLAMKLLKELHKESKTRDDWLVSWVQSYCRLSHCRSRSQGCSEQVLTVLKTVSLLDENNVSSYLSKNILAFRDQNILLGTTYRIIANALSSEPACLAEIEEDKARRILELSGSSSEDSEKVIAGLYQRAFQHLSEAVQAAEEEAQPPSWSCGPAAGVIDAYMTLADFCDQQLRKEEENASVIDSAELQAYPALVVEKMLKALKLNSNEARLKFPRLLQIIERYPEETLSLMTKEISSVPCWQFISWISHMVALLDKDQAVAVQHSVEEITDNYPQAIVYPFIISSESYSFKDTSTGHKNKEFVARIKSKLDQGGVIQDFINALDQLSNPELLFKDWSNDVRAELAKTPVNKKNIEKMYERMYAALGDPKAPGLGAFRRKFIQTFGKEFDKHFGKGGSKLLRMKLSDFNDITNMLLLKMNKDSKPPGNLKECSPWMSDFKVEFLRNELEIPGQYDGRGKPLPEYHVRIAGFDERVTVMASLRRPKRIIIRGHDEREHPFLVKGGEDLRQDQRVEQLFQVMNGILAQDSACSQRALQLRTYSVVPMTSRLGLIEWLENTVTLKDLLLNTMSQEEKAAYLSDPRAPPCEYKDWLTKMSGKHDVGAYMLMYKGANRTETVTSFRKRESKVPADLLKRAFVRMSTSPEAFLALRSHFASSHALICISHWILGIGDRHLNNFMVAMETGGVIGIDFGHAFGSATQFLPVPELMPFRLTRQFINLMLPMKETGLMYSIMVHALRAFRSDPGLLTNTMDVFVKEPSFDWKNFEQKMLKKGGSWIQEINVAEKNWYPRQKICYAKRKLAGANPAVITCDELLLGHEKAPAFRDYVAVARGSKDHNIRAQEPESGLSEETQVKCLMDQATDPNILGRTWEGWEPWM

The experiment concerns the target DNA-dependent protein kinase catalytic subunit (Homo sapiens, UniProt P78527). The experiment is described as follows: DNA-PK Enzyme Inhibitory Assay. The method, then:
The assays of DNA-PK were performed by Reaction Biology Corporation, One Great Valley Parkway, Suite 2 Malvern, PA 19355 USA. All Compounds were dissolved in DMSO (negative control solvent) and tested for their ability to inhibit human DNA-PK enzyme activity. All synthesized compounds were tested in a 10-dose IC50 profile with 4-fold serial dilutions starting at concentration 100 μM. The control compound, LY294002 was tested in a 10-dose IC50 profile with 3-fold serial dilutions starting at 10 μM concentration. Reactions were carried out using 20 μM peptide substrate [EPPLSQEAFADLWKK], 10 μg/ml DNA and 10 μM ATP using the HTRF assay format.
With `Cc1c(OCC(=O)Nc2ccc(S(=O)(=O)Nc3ccccn3)cc2)ccc2c(=O)nc(N3CCOCC3)oc12` [2-((8-Methyl-2-morpholino-4-oxo-4H-benzo[e][1,3]oxazin-7-yl)oxy)-N-(4-(N-(pyridin-2-yl)sulfamoyl)phenyl)acetamide (7c)], the IC50 was 0.25 µM.

Turning to `Cc1c(OCC(=O)Nc2ccc(S(=O)(=O)Nc3nccs3)cc2)ccc2c(=O)nc(N3CCOCC3)oc12` [2-((8-Methyl-2-morpholino-4-oxo-4H-benzo[e][1,3]oxazin-7-yl)oxy)-N-(4-(N-(thiazol-2-yl)sulfamoyl)phenyl)acetamide (7d)], the IC50 was determined as 3.5 µM. Compared with the last compound, the IC50 is about 14-fold higher. The same measure for `Cc1ccc(CNC(=O)COc2ccc3c(=O)nc(N4CCOCC4)oc3c2C)cc1` [2-((8-Methyl-2-morpholino-4-oxo-4H-benzo[e][1,3]oxazin-7-yl)oxy)-N-(4-methylbenzyl)acetamide (9c)]: 20 µM. `Cc1c(OCC(=O)Nc2ccc(S(N)(=O)=O)cc2)ccc2c(=O)nc(N3CCOCC3)oc12` [2-((8-Methyl-2-morpholino-4-oxo-4H-benzo[e][1,3]oxazin-7-yl)oxy)-N-(4-sulfamoylphenyl)acetamide (7a)] registered an IC50 of 40 µM.

As for `CCC(C)C(NC(=O)COc1ccc2c(=O)nc(N3CCOCC3)oc2c1C)C(=O)O` (stereo not given) [3-Methyl-2-(2-((8-methyl-2-morpholino-4-oxo-4H-benzo[e][1,3]oxazin-7-yl)oxy)acetamido)pentanoic acid (11b)], half-maximal inhibition (IC50) required 80 µM. In the case of `Cc1c(OCC(=O)N[C@@H](C)C(=O)O)ccc2c(=O)nc(N3CCOCC3)oc12` [(2-((8-Methyl-2-morpholino-4-oxo-4H-benzo[e][1,3]oxazin-7-yl)oxy)acetyl)alanine (11a)], inhibition was half-maximal at 100 µM (IC50). The IC50 values of the last two compounds are within 1.5-fold of each other. The compound `Cc1c(OCC(=O)N[C@@H](Cc2ccccc2)C(=O)O)ccc2c(=O)nc(N3CCOCC3)oc12` [(2-((8-Methyl-2-morpholino-4-oxo-4H-benzo[e][1,3]oxazin-7yl)oxy)acetyl)phenylalanine (11c)] returned a half-maximal inhibitory concentration (IC50) of 35 µM. The compound `Cc1noc(NS(=O)(=O)c2ccc(NC(=O)COc3ccc4c(=O)nc(N5CCOCC5)oc4c3C)cc2)c1C` [N-(4-(N-(3,4-dimethylisoxazol-5-yl)sulfamoyl)phenyl)-2-((8-methyl-2-morpholino-4-oxo-4H-benzo[e][1,3]oxazin-7-yl)oxy)acetamide (7f)] yielded an IC50 of 5 µM. Compared with the last compound, the IC50 is about 7-fold lower. On to `CC(=O)NS(=O)(=O)c1ccc(NC(=O)COc2ccc3c(=O)nc(N4CCOCC4)oc3c2C)cc1` [N-(4-(N-acetylsulfamoyl)phenyl)-2-((8-methyl-2-morpholino-4-oxo-4H-benzo[e][1,3]oxazin-7-yl)oxy)acetamide (7b)], for which half-maximal inhibition (IC50) required 35 µM. As to `Cc1c(OCC(=O)Nc2ccc(S(=O)(=O)NC(=N)N)cc2)ccc2c(=O)nc(N3CCOCC3)oc12` [N-(4-(N-carbamimidoylsulfamoyl)phenyl)-2-((8-methyl-2-morpholino-4-oxo-4H-benzo[e][1,3]oxazin-7-yl)oxy)acetamide (7e)], the IC50 is 25 µM. With `Cc1c(OCC(=O)NCc2ccc(Cl)cc2)ccc2c(=O)nc(N3CCOCC3)oc12` [N-(4-chlorobenzyl)-2-((8-methyl-2-morpholino-4-oxo-4Hbenzo[e][1,3]oxazin-7-yl)oxy)acetamide (9d)], the IC50 was determined as 10 µM. Against the preceding compound, the IC50 is about 2.5-fold lower. On to `Cc1c(OCC(=O)NCc2ccc(F)cc2)ccc2c(=O)nc(N3CCOCC3)oc12` [N-(4-fluorobenzyl)-2-((8-methyl-2-morpholino-4-oxo-4Hbenzo[e][1,3]oxazin-7-yl)oxy)acetamide (9e)], for which it took 4 µM to reach half-maximal inhibition (IC50). The compound `Cc1c(OCC(=O)NCc2ccc(O)cc2)ccc2c(=O)nc(N3CCOCC3)oc12` [N-(4-hydroxybenzyl)-2-((8-methyl-2-morpholino-4-oxo-4Hbenzo[e][1,3]oxazin-7-yl)oxy)acetamide (9f)] gave an IC50 of 2.5 µM. Compared with the last compound, the IC50 is about 1.6-fold lower. For `COc1ccc(CNC(=O)COc2ccc3c(=O)nc(N4CCOCC4)oc3c2C)cc1` [N-(4-methoxybenzyl)-2-((8-methyl-2-morpholino-4-oxo-4Hbenzo[e][1,3]oxazin-7-yl)oxy)acetamide (9b)], inhibition was half-maximal at 15 µM (IC50). This IC50 is about 6-fold higher than that of the compound before. In turn, `Cc1c(OCC(=O)NCc2ccccc2)ccc2c(=O)nc(N3CCOCC3)oc12` [N-benzyl-2-((8-methyl-2-morpholino-4-oxo-4H-benzo[e][1,3]oxazin-7-yl)oxy)acetamide (9a)] returned an IC50 greater than 100 µM.
